Results as given in patent US11813236B2, “Substances for treatment of fatty liver-related conditions” (SCANDIBIO THERAPEUTICS AB, priority 2016, dated 2023).

Tests used:
[1] = system: humans; conditions: cited from earlier work
[2] = system: subjects with high HS; assay: Human study: supplementation of serine; format: in vivo
Description: 86 subjects with varying degrees of […] were recruited for studying the response of liver to the HS. Also, liver tissue samples from 12 morbidly obese subjects that underwent bariatric surgery were collected. The mRNA expression of the identified target genes was measured in liver of obese and healthy subjects. In order to show the effect of the serine on the liver, another six subjects were recruited and the subjects' characteristics before and after serine supplementation are presented in Table 3. Subjects included in the studies met all the criteria for NAFLD including exclusion of other chronic liver diseases such as viral hepatitis, risky alcohol consumption, metabolic disorders (e.g., hemochromatosis).
Magnetic resonance experiments were performed using three 1.5 T clinical imagers (1× Sonata and 2× Avanto, Siemens, Erlangen, Germany). Liver fat content was determined using proton magnetic resonance spectroscopy and subcutaneous abdominal and visceral fat was measured by magnetic resonance imaging (Adiels et al, 2006; Lundbom et al, 2011).
(§1) The effect of short-term dietary supplementation with serine on HS and fasting levels of Plasma markers of liver functions was assessed in six subjects with high. HS. Each patient received one oral dose of ˜20 g of L-serine (200 mg/kg) per day for 14 days.
as §1, with “To identify the unique contribution of serine supplementation in decreasing HS, the” for “The”, “plasma” for “Plasma”, “high” for “high.”

[3] = 200 mg/kg/day oral 14 days, six subjects

## CC(=O)N[C@@H](CS)C(=O)O [NAC, N-acetyl-L-cysteine, reference compound]
[1]; NAC
  Daily dosage shown to be safe in humans: 4-6 grams

## N[C@@H](CO)C(=O)O [serine, L-serine]
[2]; [3]
  Plasma level of ALP after supplementation (change in words): significantly decreased
  Plasma level of ALT after supplementation (change in words): significantly decreased
  Plasma level of AST after supplementation (change in words): significantly decreased
[2]; 200 mg/kg/day oral 14 days, six subjects, FIG. 5C panel H
  Plasma ALT, response per subject: consistently decreased in all six subjects
[2]; 200 mg/kg/day oral 14 days, six subjects, FIG. 5C panel I
  Plasma AST, response per subject: consistently decreased in all six subjects
[2]; 200 mg/kg/day oral 14 days, six subjects, FIG. 5C panel J
  Plasma ALP, response per subject: decreased in five of the participating subjects
[2]; 200 mg/kg/day oral 14 days, six subjects, FIG. 5C panel K, no change in the remaining one subject
  Plasma TGs, response per subject: decreased in five of the studied subjects
[2]; 200 mg/kg/day oral 14 days, six subjects, change in words
  Plasma level of serine after supplementation: significantly increased
[2]; NAFLD patients, proof-of-concept human study
  Markers of liver function after supplementation: significantly improved
[2]; after serine, n = 6, 200 mg/kg/day oral 14 days, mean ± SD, baseline 1.00 ± 0.21, P 0.30
  HDL cholesterol: 1.02 ± 0.18 mmol/L
[2]; after serine, n = 6, 200 mg/kg/day oral 14 days, mean ± SD, baseline 2.15 ± 1.85, P 0.18
  HOMA-IR: 1.54 ± 1.49
[2]; after serine, n = 6, 200 mg/kg/day oral 14 days, mean ± SD, baseline 3.68 ± 0.80, P 0.50
  LDL cholesterol: 3.85 ± 0.94 mmol/L
[2]; after serine, n = 6, 200 mg/kg/day oral 14 days, mean ± SD, baseline 6.23 ± 1.49, P 0.18
  Total cholesterol: 5.85 ± 1.15 mmol/L
[2]; after serine, n = 6, 200 mg/kg/day oral 14 days, mean ± SD, baseline 6.57 ± 1.41, P 0.25
  Fasting plasma glucose: 6.33 ± 1.41 mmol/L
[2]; after serine, n = 6, 200 mg/kg/day oral 14 days, mean ± SD, baseline 6.90 ± 6.65, P 0.13
  Plasma triglycerides (TG): 3.63 ± 1.81 mmol/L
[2]; after serine, n = 6, 200 mg/kg/day oral 14 days, mean ± SD, baseline 7.33 ± 4.11, P 0.13
  Bilirubin: 6.48 ± 3.94 µmol/L
[2]; after serine, n = 6, 200 mg/kg/day oral 14 days, mean ± SD, baseline 46.3 ± 33.8, P 0.23
  Fasting plasma insulin (FPI): 34.7 ± 25.2 pmol/L
[2]; after serine, n = 6, 200 mg/kg/day oral 14 days, mean ± SD, baseline 63.8 ± 12.9, P 0.30
  γ-Glutamyl transferase (μGT) (U/L): 62.3 ± 16.3 U/L
[2]; after serine, n = 6, L-serine 200 mg/kg oral once per day for 14 days, mean ± SD, baseline 26.8 ± 6.0, P<0.05
  Liver fat (%): 20.4 ± 7.0%
[2]; magnetic resonance spectroscopy before and after, 200 mg/kg/day oral 14 days
  HS (hepatic steatosis) after serine supplementation (change in words): significantly decreased
[2]; magnetic resonance spectroscopy, 200 mg/kg/day oral 14 days, six patients
  HS, response per patient: decreased in all six patients
[2]; plasma, after serine, n = 6, 200 mg/kg/day oral 14 days, mean ± SD, baseline 34.5 ± 8.10, P<0.05
  Aspartate aminotransferase (AST) (U/L): 27.4 ± 8.4 U/L
[2]; plasma, after serine, n = 6, 200 mg/kg/day oral 14 days, mean ± SD, baseline 50.8 ± 15.2, P<0.05
  Alanine aminotransferase (ALT) (U/L): 37.6 ± 5.3 U/L
[2]; plasma, after serine, n = 6, 200 mg/kg/day oral 14 days, mean ± SD, baseline 76.3 ± 17.2, P<0.05
  Alkaline phosphatase (ALP) (U/L): 71.3 ± 17.9 U/L
[2]; range over the six NAFLD patients, 200 mg/kg/day oral 14 days
  Relative decrease in HS: 1.0-23%
[2]; ~20 g L-serine (200 mg/kg) oral once per day for 14 days, six subjects
  Tolerability of the supplementation: well tolerated by all the subjects
[1]; serine, around 25-30 g/day
  Doses studied in humans and shown to be safe: up to 400 mg/kg/day
